Measured values as given in US12263248B2, “Compounds and compositions for intracellular delivery of therapeutic agents” (ModernaTX, Inc., priority 2018, dated 2025).
Marks after values point to notes of the source that are not given here.

Assays:
[1] = Residual lipid levels in rat liver and spleen (UPLC-MS); assay type: in vivo; settings: for % Lipid Remaining in liver, 48 h: 2 mpk, assuming 300 g rat and 15 g liver; for % remaining dose in liver, 48 h: intravenous, 2.0 mpk; for % dose remaining Rat liver tissue, 48 h: Sprague Dawley rat liver 48 h after 2 mg/kg bolus dose mRNA
In short: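 Rats received a single intravenous dose of lipid nanoparticle composition, and liver tissue was later collected to quantify residual lipid. Weighed tissue was homogenized in Milli-Q water (900 μL per 100 mg tissue) using an Omni probe homogenizer. 50 μL aliquots were mixed with 400 μL spiking solution, vortexed, centrifuged, and analyzed by UPLC on a C8 column with positive-mode ESI detection on a Sciex API5500 mass spectrometer.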

hEPO mRNA [2] = assay: hEPO expression after intravenous administration to rats; assay type: in vivo, rat; settings: for hEPO expression: 6 h, i.v.; for hEPO expression / Lipid/MC3 hEPO conc. ratio 2 mpk: 2 mpk; for Lipid/MC3 hEPO conc. ratio 0.2 mpk / Lipid/MC3 hEPO conc. ratio 2 mpk: rats, 6 hours; for Lipid/MC3 hEPO expression: 6 hours after administration
In short: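 Rats dosed intravenously once with nanoparticle composition, 0.2 or 2.0 mpk, formulated by the standard MC3 method. Tail-vein blood sampled at 6 h or at time points from 0.25 to 48 h. hEPO measured by ELISA.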

[3] = Chemical stability of lipids in ethanol (lipid purity); assay type: physicochemical
Experimental: Ester linkages were previously reported to trigger metabolism by esterases in vivo. (See Fukami, T. et al. Drug Metab. Pharmacokinet. 2012, 27, 466-477, the content of which is incorporated by reference herein in its entirety). […] (See Maier M. A., Mol. Ther. 2013, 21, 1570-1578, the content of which is incorporated herein in its entirety) First, the chemical stability of the lipids was evaluated by measuring ethanol stability at room temperature and 37° C. (Table 39). […] LNPs formed with compound 138 were larger, with a surface pKa>7. […] Removal of one ester function (compound 136) afforded LNPs with improved physiochemical characteristics and lower LNP surface pKa.

[4] = Lipid clearance: lipid level in mouse liver tissue (LC-MS/MS); assay type: in vivo; settings: for % dose remaining Mouse liver tissue, 24 h: CD-1 mouse liver 24 h after 0.5 mg/kg bolus dose mRNA, n = 5 ± S.D.; for original dose remaining in liver tissue 24 hours post dose: mice, intravenous
Experimental: Quantification of Lipid by LC-MS/MS: Liver samples were homogenized following addition of 19 eq. (w/v) of water (DF=20). Protein was precipitated and analyzed against calibration standards prepared in matching blank. Chromatographic separation and quantification was accomplished with a LC-MS/MS System. Samples were injected and separated via HPLC A triple-quadrupole MS/MS system operated in positive ion mode was used for signal detection.

sC5b-9 = assay: Complement activation in vitro (sC5b-9 levels); assay type: cell-based; settings: human cells contacted in vitro; for sC5b-9 levels relative to saline: in words
Experimental: Complement activation assists in the clearance of pathogens from an organism. As it is undesirable that a subject's body recognize a nanoparticle composition as a foreign invader, low complement system activation upon administration of such a composition is preferred. The complex sC5b-9 is a marker for the activation of the complement system. Thus, human cells were contacted in vitro with nanoparticle compositions according to Table 1A and were evaluated for sC5b-9 levels.

hEPO mRNA [5] = assay: hEPO expression and cytokine induction after intravenous administration to mice; assay type: in vivo
Experimental: The expression of hEPO and cytokine induction in mice intravenously administered a nanoparticle composition at a dose of 0.5 mpk were measured at 3, 6, and 24 hours. […] The expression of hEPO in mice intramuscularly administered a nanoparticle composition from Table 1B at a dose of 0.01 mpk were measured at 3, 6, and 24 hours.
Blood collection and analysis for hEPO. Blood was collected from mice or rats via the tail vein and hEPO concentrations were determined using a hEPO ELISA assay.

[6] = mice, intravenous, 0.5 mpk, 6 h

| Compound | % Lipid Remaining in liver, 48 h ([1]; rats) | % remaining dose in liver, 48 h ([1]; rats) | hEPO expression (hEPO mRNA [2]; rat) | Lipid/MC3 hEPO conc. ratio 0.2 mpk (hEPO mRNA [2]; intravenous, 0.2 mpk) | Lipid/MC3 hEPO conc. ratio 2 mpk (hEPO mRNA [2]; intravenous) | Lipid Purity ([3]; t = 0) | Lipid Purity ([3]; t = 96 h, 25° C.) | Lipid Purity ([3]; t = 96 h, 37° C.) | % dose remaining Mouse liver tissue, 24 h [4] | Fold increase in sC5b-9 levels versus saline (sC5b-9) | sC5b-9 levels relative to saline (sC5b-9) | other results |
| --- | --- | --- | --- | --- | --- | --- | --- | --- | --- | --- | --- | --- |
| CCCCCCCCCN(CCO)CCCCCCCC(=O)OC(CCCCCCCC)CCCCCCCC [Compound 3, Heptadecan-9-yl 8-((2-hydroxyethyl)(nonyl)amino)octanoate] | 14% | 14.2% | 1.74e+07 pg/mL | 2.41 | 1.21 | – | – | – | – | – | – | – |
| CCCCCCCCC(CCCCCCCC)OC(=O)CCCCCCCN(CCO)CCCCCCCC(=O)OC(CCCCCCCC)CCCCCCCC [Compound 29, Di(heptadecan-9-yl) 8,8′-((2-hydroxyethyl)azanediyl)dioctanoate] | – | – | – | – | – | 97.017% | 97.67% | 98.10% | 68 ± 9.2% | 0.93 | slightly decrease | original dose remaining in liver tissue 24 hours post dose [4]: 68% |
| CCCCCCCCCOC(=O)CCCCCCCN(CCO)CCCCCCCCCC(=O)OC(CCCCCC)CCCCCC [Compound 147, Tridecan-7-yl 10-((2-hydroxyethyl)(8-(nonyloxy)-8-oxooctyl)amino)decanoate] | – | – | – | – | – | – | – | – | – | – | – | % dose remaining, liver, 24 h ([1]; Table 19B, liver, 24 h): 0.00%; AUC (hEPO) (hEPO mRNA [2]; Table 19B): 7.28e+07 pg·h/mL; Lipid/MC3 ([hEPO] ratio) (hEPO mRNA [2]; Table 19B, relative to MC3): 3.69; Lipid/MC3 AUC (hEPO mRNA [2]; Table 19B, relative to MC3): 3.94; [hEPO] (hEPO mRNA [2]; Table 19B, species, dose and time not given): 5.45e+06 pg/mL |
| CCCCCCCCCOC(=O)CCCCCCCN(CCO)CCCCCCCOC(=O)C(CCCCCCCC)CCCCCCCC [Compound 30, 7-((2-Hydroxyethyl)(8-(nonyloxy)-8-oxooctyl)amino)heptyl 2-octyldecanoate] | <0.01% | <1% | 1.63e+07 pg/mL | 1.87 | 1.14 | – | – | – | – | 0.94 | slightly decrease | – |
| CCCCCC/C=C\COC(=O)CCCCCCCN(CCO)CCCCCCCC(=O)OC(CCCCCCCC)CCCCCCCC [Compound 24, Heptadecan-9-yl (Z)-8_((2-hydroxyethyl) (8-(non-2-en-1-yloxy)-8-oxooctyl)amino)octanoate] | 0.016% | <1% | 1.44e+07 pg/mL | 1.75 | 1.01 | – | – | – | – | 0.81 | slightly decrease | – |
| CCCCCCCCCOC(=O)CCCN(CCO)CCCCCCCC(=O)OC(CCCCCCCC)CCCCCCCC [Compound 26, Heptadecan-9-yl 8-((2-hydroxyethyl)(4-(nonyloxy)-4-oxobutyl)amino) octanoate] | 20% | – | – | – | 4.95 | 98.64% | 97.38% | 95.72% | – | – | – | % dose remaining Rat liver tissue, 48 h [1]: 20 ± 4.0^f %; parent amino lipid levels in the liver ([1]; Sprague Dawley rats, 48 h post dose): 20%; % lipid remaining in liver after 48 hours ([1]; liver): 20%; lipid levels in the liver after 48 hours ([1]; rats, i.v., dose response study): about 19%; Lipid/MC3 hEPO expression (hEPO mRNA [2]; 2 mpk dose to rat): 4.95 |
| CCCCCCCC/C=C\COC(=O)CCCCCN(CCO)CCCCCC(=O)OC/C=C\CCCCCCCC [Compound 140, Di((Z)-undec-2-en-1-yl) 6,6′-((2-hydroxyethyl)azanediyl)dihexanoate] | – | – | – | – | – | – | – | – | – | 0.75 | – | – |
| CCCCC/C=C\C/C=C\CCCCCCCCN(CCO)CCCCCCCC(=O)OC(CCCCCCCC)CCCCCCCC [Compound 6, Heptadecan-9-yl 8-((2-hydroxyethyl)((9Z,12Z)-octadeca-9,12-dien-1-yl)amino)octanoate] | – | – | – | – | – | 93.80% | 93.21% | 94.29% | 67 ± 9.8% | 1.39 | somewhat increase | original dose remaining in liver tissue 24 hours post dose [4]: 67%; hEPO expression and average total flux compared with MC3 (hEPO mRNA [5]; Table 12 comparison, in words): outperform MC3; hEPO concentrations compared with MC3 formulations (hEPO mRNA [5]; mice, i.v., 0.5 mpk, 3, 6 and 24 hours): higher hEPO concentrations than MC3 formulations; hEPO expression 3 h (hEPO mRNA [5]; mice, intravenous, 0.5 mpk, 3 h): 2.31e+06 pg/mL; Average hEPO concentration (pg/ml, 6 h) (hEPO mRNA [5]; [6]): 3.17e+06 pg/mL; Cytokine expression IL-6 (6 h) (hEPO mRNA [5]; [6]): 10.15 pg/mL; Cytokine expression IP-10 (6 h) (hEPO mRNA [5]; [6]): 116.66 pg/mL; hEPO expression 6 h (hEPO mRNA [5]; [6]): 3.17e+06 pg/mL; Fold increase in hEPO concentration relative to MC3 (hEPO mRNA [5]; mice, intravenous, 0.5 mpk, 6 h, Table 12): 1.73; hEPO expression 24 h (hEPO mRNA [5]; mice, intravenous, 0.5 mpk, 24 h): 1.11e+06 pg/mL |
| CCCCC/C=C\C/C=C\CCCCCCCCN(CCO)CCCCCCCC(=O)OCCCCCCCCC [Compound 136, Nonyl 8-((2-hydroxyethyl)((9Z,12Z)-octadeca-9,12-dien-1-yl)amino)octanoate] | – | – | – | – | – | 91.81% | 93.17% | 93.86% | 0% | 0.69 | – | – |
| CCCCCCCCCOC(=O)CCCCCCCN(CCO)CCCCCCCC(=O)OCCCCCCCCC [Compound 138, Dinonyl 8,8′-((2-hydroxyethyl)azanediyl)dioctanoate] | – | – | – | – | – | 97.59% | 98.64% | 97.82% | 0% | – | – | original dose remaining in liver tissue 24 hours post dose [4]: no lipid detected |
| CCCCCCCCCCCOC(=O)CCCCCN(CCO)CCCCCCCC(=O)OC(CCCCCCCC)CCCCCCCC [Compound 25, Heptadecan-9-yl 8-((2-hydroxyethyl)(6-oxo-6-(undecyloxy)hexyl)amino)octanoate] | 1.32% | 1.3% | 3.05e+07 pg/mL | 2.41 | 2.13 | 95.58% | 96.23% | 96.13% | – | 1.02 | – | % dose remaining Rat liver tissue, 48 h [1]: 1.3^e %; % lipid remaining in liver after 48 hours ([1]; liver): 1.32%; Lipid/MC3 hEPO expression (hEPO mRNA [2]; 0.2 mpk dose to rat): 2.41; Lipid/MC3 hEPO expression (hEPO mRNA [2]; 2 mpk dose to rat): 2.13; hEPO expression 0.25 h (hEPO mRNA [2]; rat, intravenous, 0.2 mpk, 0.25 h): 0 pg/mL; hEPO expression 0.5 h (hEPO mRNA [2]; rat, intravenous, 0.2 mpk, 0.5 h): 19553 pg/mL; hEPO expression 1 h (hEPO mRNA [2]; rat, intravenous, 0.2 mpk, 1 h): 434299 pg/mL; hEPO expression 2 h (hEPO mRNA [2]; rat, intravenous, 0.2 mpk, 2 h): 2042807 pg/mL; hEPO expression 4 h (hEPO mRNA [2]; rat, intravenous, 0.2 mpk, 4 h): 3176560 pg/mL; hEPO expression 8 h (hEPO mRNA [2]; rat, intravenous, 0.2 mpk, 8 h): 2631633 pg/mL; hEPO expression 24 h (hEPO mRNA [2]; rat, intravenous, 0.2 mpk, 24 h): 869374 pg/mL; hEPO expression 48 h (hEPO mRNA [2]; rat, intravenous, 0.2 mpk, 48 h): 103089 pg/mL |
